Measurements taken from US7622271B2, “Identification of aging genes through large-scale analysis” (University of Washington, priority 2004, dated 2009).
Where two headings read alike, the source gives them in different places.

Tested on: yeast cells
Settings: for life span: yeast replicative life span
Protocol: FIG. 2 illustrates replicative life span (“RLS”) analysis in yeast. […] A mother cell is a yeast cell that has produced one or more daughter cells. […] The total number of mitotic divisions completed by a given mother cell is the replicative life span for that mother cell. One indicator of senescence in yeast is the inability to produce daughter cells.
A large-scaled, life-span analysis is performed as follows. Approximately three days before initiating a life-span-determination assay, a set of 95 strains contained in a yeast alpha-haploid-deletion collection (Open Biosystems), is transferred to a 96-well plate containing YPDagar using a FX robot, so that each strain occupies one well of a 96-well plate. Concurrently, “wildtype” reference cells (BY4742) are plated within an empty well of the 96-well test plate. For 1-2 days, plated cells are allowed to grow on rich medium, such as YPD, at 30° C. Cells are patched onto life-span-measuring plates containing YPD so that approximately 12 strains are plated per plate the night, or approximately 12 hours, before initiating life-span analysis. A life-span experiment is initiated by gridding a region of the plate distal to growing cells, to which 5 cells of each strain of 12 strains are transferred by micromanipulation. Cells are incubated for two hours at 30° C. Then, virgin daughter cells of each deletion variant cell are selected, and original mother cells are removed. Such virgin daughter cells are monitored for de novo production of daughters at 2-3 hour intervals. Produced daughters are individually removed, and tabulated. Mother cells are placed back at 30° C. to allow continued growth. During evening hours, cells are moved to 4° C. so that the cell division rate is reduced to one cell division per evening. The following day, cells are placed at 30° C. to resume growth. This process is continued for a period of time, approximately two weeks, to allow cells of each variant strain to exhaust its proliferative potential. The total number of daughter cells produced by each mother variant cell is tabulated, and determined RLS values are entered into a database.

SMILES: CS(=N)(=O)CC[C@H](N)C(=O)O (stereo partly drawn) [MSX, methionine sulfoximine]
- life span (50 uM, preliminary experiments): significantly increases life span
- life span (100 uM, preliminary experiments): significantly increases life span
- increase in mean replicative life span (1 mM (maximal life span extension), preliminary experiments): 25-30%
- life span (1 mM, preliminary experiments): significantly increases life span
- life span (2.5 mM, preliminary experiments): significantly increases life span
- replicative life span in yeast (exposure of yeast cells to MSX): extends replicative life span
